What was measured:
[1] = tested on: Corynebacterium urealyticum; assay: Expected efficacy of anti-bacterial agents against various bacteria (Tables 5 and 6); details: Gram: pos
[2] = tested on: Methicillin resistant staph aureus (MRSA); assay: as above; details: Gram: pos
Shigella dysenteriae = assay: as above; details: Gram: neg
Enterococcus faecium = assay: as above; details: Gram: pos
Shigella flexneri = assay: as above; details: Gram: neg
Enterobacter sakazakii = assay: as above; details: Gram: neg
Haemophilus ducreyi = assay: as above; details: Gram: neg
[3] = tested on: Staphylococcus aureus (MSSA); assay: as above; details: Gram: pos
Streptococcus pyogenes = assay: as above; details: Gram: pos
Shigella boydii = assay: as above; details: Gram: neg
Francisella tularensis = details: expected efficacy; Francisella tularensis; Gram: neg
Chlamydia psittaci = details: expected efficacy; Chlamydia psittaci; Gram: n/a
Neisseria meningitidis = assay: Expected efficacy of anti-bacterial agents against various bacteria (Tables 5 and 6); details: Gram: neg
Diphtheroids = assay: as above; details: Gram: pos
Proteus mirabilis = assay: as above; details: Gram: neg
Neisseria gonorrhoeae = assay: as above; details: Gram: neg
Escherichia coli = assay: as above; details: Gram: neg
Salmonella typhi = assay: as above; details: Gram: neg
Clostridium difficile = assay: as above; details: Gram: anaer
[4] = tested on: Staphylococcus epidermidis; assay: as above; details: Gram: pos
[5] = tested on: Klebsiella (Calymmatobacterium) granulomatis; assay: as above; details: Gram: neg
Proteus vulgaris = assay: as above; details: Gram: neg
Haemophilus influenzae = assay: as above; details: Gram: neg
Yersinia pestis = details: expected efficacy; Yersinia pestis; Gram: neg
Chlamydia trachomatis = assay: Expected efficacy of anti-bacterial agents against various bacteria (Tables 5 and 6); details: Gram: n/a
[6] = tested on: Acinetobacter calcoaceticus; assay: as above; details: Gram: neg
[7] = tested on: Haemophilus parainfluenzae; assay: as above; details: Gram: neg
Vibrio cholerae = assay: as above; details: Gram: neg
Acinetobacter baumannii = assay: as above; details: Gram: neg
Citrobacter freundii = assay: as above; details: Gram: neg
Campylobacter jejuni = assay: as above; details: Gram: neg
Shigella sonnei = assay: as above; details: Gram: neg
Morganella morganii = assay: as above; details: Gram: neg
Providencia rettgeri = assay: as above; details: Gram: neg
Peptostreptococcus = assay: as above; details: Gram: pos
Bacteroides fragilis = assay: as above; details: Gram: anaer
Klebsiella oxytoca = assay: as above; details: Gram: neg
Streptococcus pneumoniae = assay: as above; details: Gram: pos
Legionella pneumophila = details: expected efficacy; Legionella pneumophila; Gram: neg
Acinetobacter lwoffii = assay: Expected efficacy of anti-bacterial agents against various bacteria (Tables 5 and 6); details: Gram: neg
[8] = tested on: Viridans group streptococci; assay: as above; details: Gram: pos
Bordetella pertussis = assay: as above; details: Gram: neg
Moraxella catarrhalis = assay: as above; details: Gram: neg
Klebsiella pneumoniae = assay: as above; details: Gram: neg
Mycoplasma pneumoniae = assay: as above; details: Gram: n/a
Serratia marcescens = assay: as above; details: Gram: neg
Providencia stuartii = assay: as above; details: Gram: neg
Enterobacter cloacae = assay: as above; details: Gram: neg
Rickettsiae = details: expected efficacy; Rickettsiae; Gram: neg
Clostridium perfringens = details: expected efficacy; Clostridium perfringens; Gram: anaer
Chlamydia pneumoniae = assay: Expected efficacy of anti-bacterial agents against various bacteria (Tables 5 and 6); details: Gram: n/a
Citrobacter diversus = assay: as above; details: Gram: neg
Streptococcus agalactiae = assay: as above; details: Gram: pos
Corynebacterium jeikeium = assay: as above; details: Gram: pos
Pseudomonas aeruginosa = assay: as above; details: Gram: neg
Enterobacter aerogenes = assay: as above; details: Gram: neg
Enterococcus faecalis = assay: as above; details: Gram: pos
Pseudomonas fluorescens = assay: as above; details: Gram: neg
Brucella species = details: expected efficacy; Brucella species; Gram: neg

## CO/N=C(\C(=O)N[C@@H]1C(=O)N2C(C(=O)O)=C(CSc3nc(=O)c(=O)[nH]n3C)CS[C@H]12)c1csc(N)n1 [Ceftriaxone]
[1]
  Efficacy of various antibiotic agents: no
[2]
  Efficacy of various antibiotic agents: no
Shigella dysenteriae
  Efficacy of various antibiotic agents: yes
Enterococcus faecium
  Efficacy of various antibiotic agents: no
Shigella flexneri
  Efficacy of various antibiotic agents: yes
Enterobacter sakazakii
  Efficacy of various antibiotic agents: yes
Haemophilus ducreyi
  Efficacy of various antibiotic agents: yes
[3]
  Efficacy of various antibiotic agents: yes
Streptococcus pyogenes
  Efficacy of various antibiotic agents: yes
Shigella boydii
  Efficacy of various antibiotic agents: yes
Francisella tularensis
  Efficacy of various antibiotic agents: no
Chlamydia psittaci
  Efficacy of various antibiotic agents: no
Neisseria meningitidis
  Efficacy of various antibiotic agents: yes
Diphtheroids
  Efficacy of various antibiotic agents: no
Proteus mirabilis
  Efficacy of various antibiotic agents: yes
Neisseria gonorrhoeae
  Efficacy of various antibiotic agents: yes
Escherichia coli
  Efficacy of various antibiotic agents: yes
Salmonella typhi
  Efficacy of various antibiotic agents: yes
Clostridium difficile
  Efficacy of various antibiotic agents: no
[4]
  Efficacy of various antibiotic agents: yes
[5]
  Efficacy of various antibiotic agents: yes
Proteus vulgaris
  Efficacy of various antibiotic agents: yes
Haemophilus influenzae
  Efficacy of various antibiotic agents: yes
Yersinia pestis
  Efficacy of various antibiotic agents: no
Chlamydia trachomatis
  Efficacy of various antibiotic agents: no
[6]
  Efficacy of various antibiotic agents: no
[7]
  Efficacy of various antibiotic agents: yes
Vibrio cholerae
  Efficacy of various antibiotic agents: no
Acinetobacter baumannii
  Efficacy of various antibiotic agents: no
Citrobacter freundii
  Efficacy of various antibiotic agents: yes
Campylobacter jejuni
  Efficacy of various antibiotic agents: no
Shigella sonnei
  Efficacy of various antibiotic agents: yes
Morganella morganii
  Efficacy of various antibiotic agents: yes
Providencia rettgeri
  Efficacy of various antibiotic agents: yes
Peptostreptococcus
  Efficacy of various antibiotic agents: yes
Bacteroides fragilis
  Efficacy of various antibiotic agents: yes
Klebsiella oxytoca
  Efficacy of various antibiotic agents: yes
Streptococcus pneumoniae
  Efficacy of various antibiotic agents: yes
Legionella pneumophila
  Efficacy of various antibiotic agents: no
Acinetobacter lwoffii
  Efficacy of various antibiotic agents: no
[8]
  Efficacy of various antibiotic agents: yes
Bordetella pertussis
  Efficacy of various antibiotic agents: no
Moraxella catarrhalis
  Efficacy of various antibiotic agents: yes
Klebsiella pneumoniae
  Efficacy of various antibiotic agents: yes
Mycoplasma pneumoniae
  Efficacy of various antibiotic agents: no
Serratia marcescens
  Efficacy of various antibiotic agents: yes
Providencia stuartii
  Efficacy of various antibiotic agents: yes
Enterobacter cloacae
  Efficacy of various antibiotic agents: yes
Rickettsiae
  Efficacy of various antibiotic agents: no
Clostridium perfringens
  Efficacy of various antibiotic agents: yes
Chlamydia pneumoniae
  Efficacy of various antibiotic agents: no
Citrobacter diversus
  Efficacy of various antibiotic agents: yes
Streptococcus agalactiae
  Efficacy of various antibiotic agents: yes
Corynebacterium jeikeium
  Efficacy of various antibiotic agents: no
Pseudomonas aeruginosa
  Efficacy of various antibiotic agents: no
Enterobacter aerogenes
  Efficacy of various antibiotic agents: yes
Enterococcus faecalis
  Efficacy of various antibiotic agents: no

## Colistimethate
[1]
  Efficacy of various antibiotic agents: no
[2]
  Efficacy of various antibiotic agents: no
Enterococcus faecium
  Efficacy of various antibiotic agents: no
Enterobacter sakazakii
  Efficacy of various antibiotic agents: yes
[3]
  Efficacy of various antibiotic agents: no
Streptococcus pyogenes
  Efficacy of various antibiotic agents: no
Chlamydia psittaci
  Efficacy of various antibiotic agents: no
Neisseria meningitidis
  Efficacy of various antibiotic agents: no
Diphtheroids
  Efficacy of various antibiotic agents: no
Proteus mirabilis
  Efficacy of various antibiotic agents: no
Neisseria gonorrhoeae
  Efficacy of various antibiotic agents: no
Escherichia coli
  Efficacy of various antibiotic agents: yes
Clostridium difficile
  Efficacy of various antibiotic agents: no
[4]
  Efficacy of various antibiotic agents: no
[5]
  Efficacy of various antibiotic agents: yes
Proteus vulgaris
  Efficacy of various antibiotic agents: no
Pseudomonas fluorescens
  Efficacy of various antibiotic agents: yes
Chlamydia trachomatis
  Efficacy of various antibiotic agents: no
[7]
  Efficacy of various antibiotic agents: no
Vibrio cholerae
  Efficacy of various antibiotic agents: no
Providencia rettgeri
  Efficacy of various antibiotic agents: no
Peptostreptococcus
  Efficacy of various antibiotic agents: no
Bacteroides fragilis
  Efficacy of various antibiotic agents: no
Klebsiella oxytoca
  Efficacy of various antibiotic agents: yes
Streptococcus pneumoniae
  Efficacy of various antibiotic agents: no
Legionella pneumophila
  Efficacy of various antibiotic agents: no
[8]
  Efficacy of various antibiotic agents: no
Bordetella pertussis
  Efficacy of various antibiotic agents: no
Moraxella catarrhalis
  Efficacy of various antibiotic agents: no
Klebsiella pneumoniae
  Efficacy of various antibiotic agents: yes
Mycoplasma pneumoniae
  Efficacy of various antibiotic agents: no
Brucella species
  Efficacy of various antibiotic agents: no
Serratia marcescens
  Efficacy of various antibiotic agents: no
Providencia stuartii
  Efficacy of various antibiotic agents: no
Enterobacter cloacae
  Efficacy of various antibiotic agents: yes
Chlamydia pneumoniae
  Efficacy of various antibiotic agents: no
Streptococcus agalactiae
  Efficacy of various antibiotic agents: no
Corynebacterium jeikeium
  Efficacy of various antibiotic agents: no
Pseudomonas aeruginosa
  Efficacy of various antibiotic agents: yes
Enterobacter aerogenes
  Efficacy of various antibiotic agents: yes
Enterococcus faecalis
  Efficacy of various antibiotic agents: no

Reference: patent US20190255086A1, “Compositions and Methods for Treating an Infection” (CMPD Licensing, LLC, priority 2015, published 2019)
